{
  "source": "paper PMC6213900",
  "about": "“Design, Synthesis, and Cytotoxic Analysis of Novel Hederagenin–Pyrazine Derivatives Based on Partial Least Squares Discriminant Analysis” (International Journal of Molecular Sciences, 2018)",
  "key": {"[1]": {"test_system": "A549 cells", "assay": "Cell-cycle analysis by PI staining, flow cytometry", "format": "cell-based, human", "details": "72 h", "protocol": "The remarkable activity of compound 9 against the A549 cell line prompted us to investigate its effect on the cell cycle of A549 by flow cytometry.\nAccording to instructions, A549 cells were stained with the Cell Cycle and Apoptosis Analysis Kit (Beyotime Biotechnology, Shanghai, China). A549 cells in the logarithmic growth phase were seeded in six-well plates (4.8 × 10^4 cells/well). After incubation for 24 h at 37 °C with 5% CO2, various concentrations (0, 2, 5, or 10 μM) of compound 9 were added to the cultures, and the plate was incubated for a further 72 h. A549 cells were collected, washed twice with cold PBS, and centrifuged at 2400 rpm for 10 min. The resulting pellet was mixed with 1 mL of 70% ethanol, and retained for 12 h at 4 °C, before being centrifuged at 2400 rpm for 10 min. The supernatant was discarded, and the resulting pellet was mixed with 1mL of cold PBS and centrifuged at 2400 rpm for 10 min. Then, 0.5 mL of PI staining solution was added and mixed gently. After incubation at 37 °C for 30 min, the cells were immediately analyzed with a flow cytometer at 488 nm."}, "[2]": {"test_system": "HepG2, A549, MCF-7, H9c2, and MDCK cells", "assay": "MTT assay, panel of five cell lines (summary in discussion)", "format": "cell-based", "details": "read-out: IC50 values ranging (cell lines not specified)", "protocol": "A series of different esters of He were designed and synthesized. All these compounds were screened for cytotoxic activity employing a panel of five cell lines, including HepG2, A549, MCF-7, H9c2, and MDCK cells, using the MTT assay. […] Further intensive modifications at C-23 and studies are currently being performed in our research group, and the results will be reported in due course.\nThe antitumor activity of these compounds were evaluated on MCF-7, A549, HepG2, MDCK, and H9c2 cell lines using the MTT assay. Cells at a density of 3 × 10^3 cells/well were plated in a 96-multiwell plate in DMEM containing 10% FBS for 24 h at 37 °C with 5% CO2. Then, cells were treated for 72 h with the required concentrations (3.125, 6.25, 12.5, 25, or 50 μM) of the compounds and reference drugs (He and DDP) dissolved with the vehicle DMSO. After that, the culture substrate was replaced with 200 μL of DMEM containing 20 μL of MTT solution at 5 mg/mL and incubated for 4 h. The supernatant was removed and the dissolved formazans precipitated with 120 μL of DMSO. Wells without drugs were used as blanks. A plate reader was used to determine the absorbance at 490 nm. The above steps were repeated three times. The IC50 values were defined as the concentration of the compound which gave 50% growth inhibition, and they were calculated using Graph Pad Prism 5. […]"}, "[3]": {"test_system": "MCF-7 (human mammary cancer)", "assay": "MTT cytotoxicity assay, MCF-7", "format": "cell-based", "details": "Homo sapiens, MCF7, 72 h treatment, read-out: Half Maximal Inhibitory Concentration (IC50) MCF-7", "procedure,_shortened": "(§1)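 Cells seeded at 3 × 10^3/well in DMEM/10% FBS, then treated 72 h with 3.125–50 μM compound in DMSO. MTT (5 mg/mL) added for 4 h, formazan dissolved in DMSO, absorbance read at 490 nm; inhibition relative to untreated control, IC50 as 50% growth inhibition, triplicate runs.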"}, "[4]": {"test_system": "MDCK (Madin–Darby canine kidney) cells", "assay": "MTT toxicity evaluation, MDCK", "format": "cell-based", "details": "Canis lupus familiaris, MDCK, 72 h treatment, non-tumor cells, read-out: Half Maximal Inhibitory Concentration (IC50) MDCK", "procedure,_shortened": "as §1"}, "[5]": {"test_system": "A549 cells", "assay": "Giemsa staining, morphological detection of apoptosis", "format": "cell-based, human", "details": "72 h", "protocol": "With an increase in dose, the phenomenon of cell shrinkage and cell disruption became more obvious.\nA549 cells in the logarithmic growth phase were seeded in 12-well plates (1.2 × 10^4 cells/well). After incubation for 24 h at 37 °C with 5% CO2, various concentrations (0, 2, 4, or 6 μM) of compound 9 were added to the cultures, and the plate was incubated for further 72 h. Then, we discarded the cell culture fluid, washed twice with phosphate-buffered saline (PBS), and fixed the cells with cold methanol. The A549 cells were stained with 6% Giemsa solution for 5 min, washed with water, and dried. The cell morphological changes were observed under an inverted microscope."}, "[6]": {"test_system": "H9c2 (murine heart myoblast)", "assay": "MTT toxicity evaluation, H9c2", "format": "cell-based", "details": "H9c2, 72 h treatment, non-tumor cells, read-out: Half Maximal Inhibitory Concentration (IC50) H9c2", "procedure,_shortened": "as §1"}},
  "data": [
    {"molecule": "Cc1cncc(C(=O)OCCOC(=O)[C@]23CCC(C)(C)CC2C2=CCC4[C@@]5(C)CC[C@H](O)[C@@](C)(CO)C5CC[C@@]4(C)[C@]2(C)CC3)n1", "note": "(stereo partly drawn) [Compound 9, 2-(((4aS,6aS,6bR,9R,10S,12aR)-10-Hydroxy-9-(hydroxymethyl)-2,2,6a,6b,9,12a-hexamethyl-1,2,3,4,4a,5,6,6a,6b,7,8,8a,9,10,11,12,12a,12b,13,14b-icosahydropicene-4a-carbonyl)oxy)ethyl-6-methylpyrazine-2-carboxylate]", "values": [
      {"measurement": "cells in G1 phase", "setting": "[1]; 2 μM", "value": 57.46, "unit": "%"},
      {"measurement": "cells in G2 phase", "setting": "[1]; 2 μM", "value": 8.37, "unit": "%"},
      {"measurement": "cells in S phase", "setting": "[1]; 2 μM", "value": 34.17, "unit": "%"},
      {"measurement": "cells in G1 phase", "setting": "[1]; 5 μM", "value": 53.44, "unit": "%"},
      {"measurement": "cells in G2 phase", "setting": "[1]; 5 μM", "value": 0.00, "unit": "%"},
      {"measurement": "cells in S phase", "setting": "[1]; 5 μM", "value": 46.56, "unit": "%"},
      {"measurement": "cells in G1 phase", "setting": "[1]; 10 μM", "value": 39.54, "unit": "%"},
      {"measurement": "cells in G2 phase", "setting": "[1]; 10 μM", "value": 0.00, "unit": "%"},
      {"measurement": "cells in S phase", "setting": "[1]; 10 μM", "value": 60.46, "unit": "%"},
      {"measurement": "IC50", "setting": "[2]", "value": "3.22 to 4.48", "unit": "µM"},
      {"measurement": "IC50", "setting": "[3]", "value": "8.73 ± 1.49", "unit": "µM"},
      {"measurement": "IC50", "setting": "[4]", "value": "14.11 ± 0.04", "unit": "µM"},
      {"measurement": "cell morphology, Giemsa staining", "setting": "[5]; 2 μM", "value": "the cells had a lot of puffing and fragmentation"},
      {"measurement": "cell morphology, Giemsa staining", "setting": "[5]; 6 μM", "value": "almost no normal cell morphology"},
      {"measurement": "IC50", "setting": "[6]", "value": "16.69 ± 0.12", "unit": "µM"}
    ]}
  ]
}
